Holding throughout (type): cell-based
Experiment [1] relates to Human Pancreatic Carcinoma Cells (PANC-1). The experiment is described as follows: Tumor cell proliferation assay (MTT), PANC-1. The note with it: for inhibition at 10 µM: concentration of 10^−5 mol/L, preliminary screening, 72 hours, read-out: Inhibition rate % PANC-1; for pIC50: secondary screening, 48 hours.
Experiment [2] concerns Human Pancreatic Carcinoma Cell Line (BXPC-3). Kind of experiment: Tumor cell proliferation assay (MTT), BXPC-3. To be noted: for inhibition at 10 µM: concentration of 10^−5 mol/L, preliminary screening, 72 hours, read-out: Inhibition rate % BXPC-3; for pIC50: secondary screening, 48 hours.
The subject of experiment [3] is Human Ovarian Cancer Cell Line (SK-OV-3). The experiment is described as follows: Tumor cell proliferation assay (MTT), SK-OV-3. To be noted: for inhibition at 10 µM: concentration of 10^−5 mol/L, preliminary screening, 72 hours, read-out: Inhibition rate % SK-OV-3; for pIC50: secondary screening, 48 hours.
The subject of experiment [4] is Human Colon Cancer Cell Line (HT-29). The experiment is described as follows: Tumor cell proliferation assay (MTT), HT29. The note with it: for inhibition at 10 µM: concentration of 10^−5 mol/L, preliminary screening, 72 hours, read-out: Inhibition rate % HT29; for pIC50: secondary screening, 48 hours.
Experiment [5] has as its system Human Gastric Cancer Cell Line (BGC). The experiment is described as follows: Tumor cell proliferation assay (MTT), BGC. The note with it: for inhibition at 10 µM: concentration of 10^−5 mol/L, preliminary screening, 72 hours, read-out: Inhibition rate % BGC; for pIC50: secondary screening, 48 hours.

pIC50: −log10 of the molar value.

On to `CCN(CC)CC(O)CNC(=O)c1c(C)[nH]c2c1CCC/C2=C1/C(=O)Nc2ccccc21` (centres unmarked) [I-63, N-(3-(diethylamino)-2-hydroxypropyl)-2-methyl-7-[1,2-dihydro-2-oxo-3H-indol-(Z)-3-ylidene]-4,5,6,7-tetrahydro-1H-indole-3-carboxamide], for which the inhibition at 10 µM amounted to 92.1% in experiment [1]; 97.3% in experiment [2]; 94% in experiment [3]; 92.7% in experiment [4]; 80.8% in experiment [5]. For the same compound, the pIC50 is 6.18 in experiment [1]; 5.94 in experiment [2]; 5.87 in experiment [3]; 5.99 in experiment [4]; 5.73 in experiment [5].

As to `Cc1[nH]c2c(c1C(=O)NCCO)CCC/C2=C1/C(=O)Nc2ccccc21` [I-8, N-(2-hydroxyethyl)-2-methyl-7-[1,2-dihydro-2-oxo-3H-indol-(Z)-3-ylidene]-4,5,6,7-tetrahydro-1H-indole-3-carboxamide], the inhibition at 10 µM turned out to be 5.66% in experiment [1]; 74.9% in experiment [2]; 38.1% in experiment [3]; 84.8% in experiment [4]; 47% in experiment [5]. Also, in experiment [2], the pIC50 is 5.93.

As to `Cc1[nH]c2c(c1C(=O)NCCN(C)C)CCC/C2=C1/C(=O)Nc2ccc(F)cc21` [I-6, N-(2-(dimethylamino)ethyl)-2-methyl-7-[1,2-dihydro-5-fluoro-2-oxo-3H-indol-(Z)-3-ylidene]-4,5,6,7-tetrahydro-1H-indole-3-carboxamide], the inhibition at 10 µM in experiment [1] turned out to be 19.8%; in experiment [2], 64.9%; in experiment [3], 32.2%; in experiment [4] it was 61.9%; in experiment [5], 32.3%. For the same compound, the negative logarithm of the IC50 (pIC50) in experiment [2] was 5.22; in experiment [4] it was 5.36.

On to `Cc1[nH]c2c(c1C(=O)NCC(O)CN1CCCCC1)CCC/C2=C1/C(=O)Nc2ccccc21` (centres unmarked) [I-73, N-(2-hydroxy-3-(piperidin-1-yl)propyl)-2-methyl-7-[1,2-dihydro-2-oxo-3H-indol-(Z)-3-ylidene]-4,5,6,7-tetrahydro-1H-indole-3-carboxamide], for which the inhibition at 10 µM in experiment [1] turned out to be 48%; in experiment [2] it was 90.2%; in experiment [3] it was 71.9%; in experiment [4] it was 95.6%; in experiment [5] it was 48.8%. Also, the pIC50 in experiment [2] is 5.91; in experiment [4], 6.19; in experiment [5], 4.99.

`Cc1[nH]c2c(c1C(=O)NCC(O)CN1CCN(C)CC1)CCC/C2=C1/C(=O)Nc2ccc(F)cc21` (centres unmarked) [I-77, N-[2-hydroxy-3-(4-methylpiperazin-1-yl)propyl]-2-methyl-7-[1,2-dihydro-5-fluoro-2-oxo-3H-indol-(Z)-3-ylidene]-4,5,6,7-tetrahydro-1H-indole-3-carboxamide]: the inhibition at 10 µM in experiment [1] stood at 61.9%; in experiment [2], 45.9%; in experiment [3] it was 77.3%; in experiment [4] it was 74.4%; in experiment [5] it was 84.2%. For the same compound, the negative-log IC50 (pIC50) was 5.26 in experiment [1]; 5.06 in experiment [2]; 5.19 in experiment [3]; 5.08 in experiment [4]; 5.46 in experiment [5].
